Results from patent publication US20070093894A1, “Incorporation of antimicrobial combinations onto devices to reduce infection” (Baylor College of Medicine, priority 2005, published 2007).

Legend:
Type in all cases: cell-based
[1] = test system: Enterococcus faecalis (gram positive); experiment: Zone of inhibition on agar, antibiotic-coated composite hernia patch segments; details: hernia patch (polypropylene mesh/PTFE) segment 10x10x2 mm, coating solution 100 mg/ml of each antibiotic, long axis perpendicular to agar; for zone of inhibition at 100000 µg/mL: Enterococcus faecalis
Experimental: (§1) The device used in this example is a composite hernia patch with polypropylene mesh on one side and polytetrafluoroethylene (PTFE) on the other side. Antibiotics were incorporated onto devices by using a patented method (U.S. Pat. No. 6,589,591) that utilized coating solutions that contained 100 mg/ml of minocycline; 100 mg/ml tobramycin; 100 mg/ml gentamicin; 100 mg/ml minocycline and 100 mg/ml tobramycin (minocycline dissolved first); or 100 mg/ml minocycline and 100 mg/ml gentamicin (minocycline dissolved first). The tested square device segments were 10 mm (long)×10 mm (wide)×2 mm (thick). The device segments were placed onto agar with their long axis perpendicular to the agar (i.e. only 2 mm of the segment was in contact with the agar). All zone of inhibition are expressed in mm, and table 1 summarizes the results of the zones of inhibition.

[2] = test system: Escherichia coli (gram negative); experiment: as above; details: hernia patch (polypropylene mesh/PTFE) segment 10x10x2 mm, coating solution 100 mg/ml of each antibiotic, long axis perpendicular to agar; for zone of inhibition at 100000 µg/mL: Escherichia coli
Experimental: as §1

[3] = test system: Staphyulococcus aureus (gram positive); experiment: as above; details: hernia patch (polypropylene mesh/PTFE) segment 10x10x2 mm, coating solution 100 mg/ml of each antibiotic, long axis perpendicular to agar
Experimental: as §1

[4] = test system: Staphylococcus epidermidis; experiment: Zone of inhibition on agar, antibiotic-coated polyurethane central venous catheter segments; details: 7-french polyurethane central venous catheter segment 10x2 mm, coating solution 100 mg/ml of each antibiotic, long axis parallel to agar; for zone of inhibition at 100000 µg/mL: Staphylococcus epidermidis
Experimental: The device used in this example is a 7-french, polyurethane central venous catheter. Antibiotics were incorporated onto devices by using a patented method (U.S. Pat. No. 6,589,591) that utilized coating solutions that contained 100 mg/ml of minocycline; 100 mg/ml tobramycin; 100 mg/ml gentamicin; 100 mg/ml minocycline and 100 mg/ml tobramycin (minocycline dissolved first); or 100 mg/ml minocycline and 100 mg/ml gentamicin (minocycline dissolved first). The tested catheter segments were 10 mm (long)×2 mm (wide). The cather segments were placed onto agar with their long axis parerrel to the agar. All zone of inhibition are expressed in mm, and table 2 summarizes the results of the zones of inhibition.

## CN(C)c1ccc(O)c2c1C[C@H]1C[C@H]3[C@H](N(C)C)C(O)=C(C(N)=O)C(=O)[C@@]3(O)C(O)=C1C2=O [Minocycline, minocycline]
[1]
  zone of inhibition at 100000 µg/mL: 3 mm
[2]
  zone of inhibition at 100000 µg/mL: 3 mm
[3]
  zone of inhibition at 100000 µg/mL: 11 mm
[4]
  zone of inhibition at 100000 µg/mL: 30 mm

## gentamicin
[1]
  zone of inhibition, Enterococcus faecalis (gram positive): 0 mm
[2]
  zone of inhibition, Escherichia coli (gram negative): 11 mm
[3]
  zone of inhibition, Staphyulococcus aureus (gram positive): 14 mm
[4]
  zone of inhibition, Staphylococcus epidermidis: 6 mm

## NC[C@H]1O[C@H](O[C@H]2[C@H](O)[C@@H](O[C@H]3O[C@H](CO)[C@@H](O)[C@H](N)[C@H]3O)[C@H](N)C[C@@H]2N)[C@H](N)C[C@@H]1O [Tobramycin, tobramycin]
[1]
  zone of inhibition at 100000 µg/mL: 9 mm
[2]
  zone of inhibition at 100000 µg/mL: 18 mm
[3]
  zone of inhibition at 100000 µg/mL: 12 mm
[4]
  zone of inhibition at 100000 µg/mL: 14 mm
